Data: patent publication US11179358B2, “Compound for use in the prevention and treatment of neurodegenerative diseases” (Universität Wien, priority 2015, dated 2021)
“Also recorded” adds a separate entry of the source.

How the values were obtained:
Lcn2 = Lcn2 (Homo sapiens, UniProt P80188); assay: Isothermal titration calorimetry of Sulfocalixarene binding to Lcn2; conditions: ITC, 25° C., 20 mM Tris pH 7.4, 50 mM NaCl, single binding site
Procedure: Isothermal Titration Calorimetry (ITC)—Binding of free and bound Sulfocalixarene to Lcn2 was determined by ITC using a Microcal ITC200 microcalorimeter. Experiments were carried out at 25° C. in 20 mM Tris pH 7.4, 50 mM NaCl. The reference cell contained Milli Q water. The concentration of Lcn2 in the reaction cell was 50 μM. The concentration of Sulfocalixarene in the syringe was 500 μM. The titration consisted in 19 successive injections of 4 μL, with a stirring speed of 800 rpm, separated by intervals of 300 s. Data analysis was done with the Origin software assuming a single binding site.
FIG. 7 illustrates a biophysical characterization of the Sulfocalixarene binding to soluble Lcn2. (top). Overlay of ^1H-^15N HSQC spectra for Lcn2 without (red) and with Sulfocalixarene (blue). Changes of cross peak frequencies (positions) indicate residues which are affected upon binding. (bottom) Isothermal titration calorimetry traces of Sulfocalixarene binding to Lcn2. Sulfocalixarene binds to Lcn2 with a KD of about 700 nM.

α-synuclein = α-synuclein (Homo sapiens, UniProt P37840); assay: NMR probing of interaction between α-synuclein and Sulfocalixarene, with and without POPG liposomes; assay type: binding
Procedure: POPG was ordered from Avantis Polar Lipids as a stock of 5 mg/ml dissolved in chloroform. The stock solution was aliquotted in glass vials, most chloroform was evaporated under nitrogen flow and the sample was then dried under vacuum for a minimum of 45 min. POPG was dissolved in the desired buffer to 1 mg/ml, kept at RT for 1 hr and subjected to 3 freeze-thaw cycles for complete solvation. The suspension was sonicated in a bath sonicator for 5 min and cycled through an extruder (Avanti® mini-Extruder) equipped with a 0.4 μm membrane for 20 times.
To allow for high concentration measurements, the resulting solution was centrifuged at 200,000×g for 10 min, 75% of the supernatant were discarded and the pellet was resuspended in the remaining 25% yielding a solution of 4 mg/ml POPG. This solution was frozen in aliquots before being used in further measurements. […]
For all NMR-measurements the protein was dialyzed into 20 mM phosphate, pH=7.4, 100 mM NaCl. […] NMR-Spectra were recorded on Varian Direct Drive 600 MHz and Varian Inova 800 MHz spectrometers with 10% D2O as lock solvent. […] Resonance assignment at near physiological conditions was readily available from a previous publication (J. N. Rao, Y. E. Kim, L. S. Park, T. S. Ulmer, Effect of pseudorepeat rearrangement on alpha-synuclein misfolding, vesicle binding, and micelle binding. J Mol Biol 390, 516-529 (2009)) (BMRB ID 16300). […]

[1] = test system: transgenic animal models for Parkinson Disease (PD); assay: Immunostaining of cortex in transgenic animal models for Parkinson Disease and healthy controls; assay type: in vivo, mice
Description: FIG. 3: Quantification of the neuronal-immunostaining experiments. Total area, average size and % area are different computational strategies to quantify the number of neurons (however, leading to the same results).
FIG. 4: Immunostaining of astrocytes in healthy (control) and transgenic animals (PD). […] The numbers given for the transgenic animal models are average numbers (and standard deviation) of astrocytes obtained for different animals and cortex regions.
FIG. 6: Quantification of α-synuclein aggregates.

[2] = test system: RA/PMA differentiated SH-SY5Y cells; assay: Sulfocalixarene protection against Lcn2/NGAL cytotoxicity; assay type: cell-based; conditions: human differentiated SH-SY5Y neuroblastoma cells
Procedure: (§1) FIG. 11: Sulfocalixarene protection against Lcn2/NGAL cytotoxicity. A. SH-SY5Y RA/PMA differentiated cells were treated for 24 and 48 hours with two lethal concentrations of Lcn2/NGAL (100 μg/ml and 200 μg/ml). Cells were challenged with increasing concentration of Sulfocalixarene and assessed for MTT and phase contrast microscopy analyses. B. SH-SY5Y RA/PMA differentiated cells were treated for 24 and 48 hours with two lethal concentrations of MPP+ (0.5 mM and 10 mM). Cells were challenged with increasing concentration of Sulfocalixarene and assessed for MTT and phase contrast microscopy analyses.
To further study the effect of the compound in neuronal cellular cultures, a cytotoxicity assay was developed using the human Neuroblastoma SH-SY5Y cell line as an in vitro model for dopaminergic neurons. First, it was shown that RA-PMA terminally differentiated SH-SY5Y cells are sensitive to Lcn2/NGAL cytotoxicity in a dose dependent manner. Moreover, in the presence of reactive oxygen species (ROS) triggered by H2O2 the Lcn2/NGAL cytotoxicity is stronger. Second, it could be shown that SH-SY5Y terminally differentiated cells express ˜5× more the Lcn2/NGAL cognate receptor (SLC22A17) on the plasma membrane.

[3] = test system: RA/PMA differentiated SH-SY5Y cells; assay: Sulfocalixarene protection against MPP+ and H2O2 cytotoxicity; assay type: cell-based, human; conditions: Sulfocalixarene 500 μM and 100 μM
Procedure: as §1
FIG. 12: Sulfocalixarene protection against MPP+ and H2O2 cytotoxicity. Representative phase-contrast microscope images of RA/PMA differentiated SH-SY5Y cells, scale bar 100 μm.
Furthermore, it was shown that Sulfocalixarene protected against MPP+ (a substrate for the dopamine transporter that is taken up selectively into dopaminergic neurons where it inhibits Complex I of the mitochondrial electron transport chain) and H2O2 stress in human differentiated SH-SY5Y cells. Oxidative stress and mitochondrial damage have been implicated in the pathogenesis of several neurodegenerative diseases.

[4] = test system: transgenic (tg) animals Line 61; assay: Pasta Gnawing Test; assay type: in vivo, mice
Procedure: FIG. 13: Pasta Gnawing. The Pasta Gnawing Test is a stress-free behavioral experiment for evaluation of motor deficits in rodents. During the test, the gnawing noises of the animals while eating a piece of dry pasta are recorded. Parameters such as biting speed and number of bites/chewing episode are evaluated.
Data are shown as mean±SEM. Statistics 1-Way-Anova. Statistically significant group differences are indicated with asterisks (for One Way Anova) and hashtag (for t-test); *p<0.05; **p<0.01; #p<0.05.

Chain of Lcn2 (P80188 21-198): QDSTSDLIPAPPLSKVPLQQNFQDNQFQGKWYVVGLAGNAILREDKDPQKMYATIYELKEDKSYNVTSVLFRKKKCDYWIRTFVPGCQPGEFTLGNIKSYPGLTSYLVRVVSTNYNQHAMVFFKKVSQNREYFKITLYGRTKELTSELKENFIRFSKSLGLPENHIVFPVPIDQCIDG

SMILES: O=S(=O)(O)c1cc2c(O)c(c1)Cc1cc(S(=O)(=O)O)cc(c1O)Cc1cc(S(=O)(=O)O)cc(c1O)Cc1cc(S(=O)(=O)O)cc(c1O)C2 [Sulfocalixarene, 4-sulfocalix[4]arene]
- Kd (Lcn2): ~700 nM
- location of binding site on α-synuclein (NMR chemical shift changes) (α-synuclein; monomeric (soluble) α-Synuclein): N-terminal domain of α-synuclein; also recorded: N-terminal part of α-Synuclein; also recorded: N-terminal domain (1-40)
- release of α-syn from POPG liposomes (NMR signal intensity ratio) (α-synuclein; α-syn (120 µM) with POPG-liposomes (0.8 mg/ml)): partly releases α-syn from the liposomes
- number of astrocytes ([1]; healthy control animals): unaffected
- number of neurons in the cortex ([1]; transgenic animal models for PD): increase of the number of neurons in the cortex
- pathological α-synuclein aggregates ([1]; transgenic animals (PD)): reduction of pathological α-synuclein aggregates; also recorded: significant reduction of α-synuclein aggregates
- number of astrocytes ([1]; transgenic animals (PD), cortex): increase of the number of (presumably neurotrophic quiescent) astrocytes
- neuroprotection against Lcn2/NGAL cytotoxicity [2]: has neuroprotection properties against the cytotoxic protein Lcn2/NGAL
- cell viability reduction induced by H2O2 [3]: attenuates the reduction of cell viability
- cell viability reduction induced by MPP+ [3]: attenuates the reduction of cell viability
- bites per episode ([4]; day 28, tg Line 61, versus tg animals treated with vehicle): significant more bites per episode
- biting speed ([4]; tg Line 61, versus tg animals treated with vehicle): more biting speed
